Like-named read-outs stand apart in the source and are kept apart here. No end group written: not given here. Bounds are passed on as bounds.

The source of these data is US20110294722A1, “ANTIMICROBIAL PEPTIDES” (priority 2008, published 2011).

What all share (assay type): cell-based
One assay deals with Botrytis cinerea. As to the kind of experiment: In-vitro inhibition assay (MIC), Example 2. The conditions noted are these: visual screening. The protocol: (§1) In-vitro inhibition assays were performed in sterile flat-bottom 96-well plates (Greiner bio-one, Frickenhausen). Antimicrobial peptides were dissolved in 0.01% acetic acid containing 0.2% BSA (500 μg/ml), filter sterilized and stored at −20° C. For inhibition assays dilutions of peptides ranging from 5 to 200 μg/ml were prepared and 10 μl (antibacterial assay) or 20 μl (antifungal assay) of each concentration was loaded per well.
(§2) Spores of fungi were collected by water washes of sporulating cultures grown on 2% malt extract agar and spore concentration was determined by microscopy. The concentration of the spores was adjusted to 1.5-2×10^3 spores/ml in 2% malt extract medium and 80 μl of fungal spores were added per well. The final peptide concentrations used in the fungal inhibition assays were […]. After overnight incubation at room temperature the plate were put on a rotary shaker (300 rpm) for further two days to ensure consistantly growth. Antifungal effects of the peptides were determined by a microplate reader (Alternaria, Fusarium) at OD590 nm or by visual screening of the plates (Botrytis, Cladosporium).
(§3) The lowest peptide concentration leading to complete inhibition of bacterial growth or spore germination/mycelial growth (minimal inhibition concentration, MIC) was determined for each organism-peptide combination. For each peptide concentration two identical inhibition assays were performed.

In another assay the test system is Alternaria alternata. As to the kind of experiment: In-vitro inhibition assay (MIC), Example 2. The conditions noted are these: OD590 nm. The protocol:
as §1, §2, §3

In a further assay the test system is Cladosporium herbarum. Description: In-vitro inhibition assay (MIC), Example 2. The following applies: visual screening. The protocol:
as §1, §2, §3

Assay [1] has as its system Pseudomonas syringae pv. syringae. The conditions noted are these: Pseudomonas syringae pv. syringae; for MIC (>90% inhibition): 1-2 days at 25° C.; for LC (lethal concentration, 100% inhibition): at least 4 days of incubation. The protocol: (§4) In-vitro inhibition assays were performed in sterile flat-bottom 96-well plates (Greiner bio-one, Frickenhausen). Antimicrobial peptides were dissolved in 0.01% acetic acid containing 0.2% BSA (500 μg/ml), filter sterilized and stored at −20° C. For inhibition assays dilutions of peptides ranging from 5 to 200 μg/ml were prepared and 10 μl (antibacterial assay) or 20 (antifungal assay) of each concentration was loaded per well.
(§5) Bacteria colonies from overnight agar plate cultures were resuspended into 5 ml LB-medium or HPG-medium (OD600 nm=0.08-0.1) and diluted into LB-medium/HPG-medium (1:100). 90 μl of this suspension containing about 10^5-10^6 CFU/ml of tested bacteria were added to each well resulting in final peptide concentrations of 0, 0.5, 1, 2, 5, 10, and 20 μg/ml. […] The lowest concentration, in which there is no observable growth (>90% inhibition) is referred to as minimal inhibitory concentration (MIC). […] For each peptide concentration two identical inhibition assays were performed.

The next assay concerns Pseudomonas corrugata. The following applies: Pseudomonas corrugata; for MIC (>90% inhibition): 1-2 days at 25° C.; for LC (lethal concentration, 100% inhibition): at least 4 days of incubation. As for the experimental part:
as §4, §5

Assay [2] has as its system Pseudomonas syringae pv. tomato. The conditions noted are these: for LC (lethal concentration, 100% inhibition): at least 4 days of incubation. The protocol:
as §4, §5

Assay [3] deals with Pectobacterium carotovorum. The conditions noted are these: Pectobacterium carotovorum; for MIC (>90% inhibition): 1-2 days at 25° C.; for LC (lethal concentration, 100% inhibition): at least 4 days of incubation. The protocol:
as §4, §5

Another assay has as its system Xanthomonas vesicatoria. Description: In-vitro inhibition assay (MIC and LC), Example 3. The conditions noted are these: for MIC (>90% inhibition): 1-2 days at 25° C.; for LC (lethal concentration, 100% inhibition): at least 4 days of incubation. As for the experimental part: as §4, §5
The subject of assay [4] is Clavibacter michiganensis. Description: In-vitro inhibition assay (MIC and LC), Example 3. The conditions noted are these: for MIC (>90% inhibition): 1-2 days at 25° C.; for LC (lethal concentration, 100% inhibition): at least 4 days of incubation. As for the experimental part:
as §4, §5

[5] abbreviates: Pseudomonas syringae pv. tomato, 1-2 days at 25° C.
Setting [6] is: Pseudomonas syringae pv. tomato.

In the case of RKRFARFAKRAV-NH2 [Sp3], the “Minimal inhibition concentration (MIC) for complete inhibition of spore germination/mycelial growth” value with Botrytis cinerea was >100 µg/mL; in the assay with Alternaria alternata it was >100 µg/mL; in the assay with Cladosporium herbarum, 40 µg/mL.

Regarding KKKKIIKRLI-NH2 [SP1-17], the “MIC (>90% inhibition)” value in assay [1] was < 0.1 µg/mL; against Pseudomonas corrugata, 5.0 µg/mL; in assay [2] (setting [5]), 1.0/1.0 μg/ml; in [3] it was >10/>10 μg/ml; against Xanthomonas vesicatoria it was >10/>10 μg/ml; in assay [4], >10/>10 μg/ml. Besides, the “LC (lethal concentration, 100% inhibition)” value in assay [1] was > 10 µg/mL; in the assay on Pseudomonas corrugata, > 10 µg/mL; in assay [2] (setting [6]) it was 1.0/1.0 μg/ml; in assay [3], >10/>10 μg/ml; in the assay on Xanthomonas vesicatoria it was >10/>10 μg/ml; in assay [4], >10/>10 μg/ml.

For the substance RKKKFKFFKRLF-NH2 [SP1-12], the “MIC (>90% inhibition)” value is 0.1 µg/mL in assay [1]; 0.25 µg/mL against Pseudomonas corrugata; >10/>10 μg/ml in [2] (setting [5]); >10/>10 μg/ml in assay [3]; 0.5 µg/mL against Xanthomonas vesicatoria; 0.5/0.5 μg/ml in [4]. For the same substance, the “LC (lethal concentration, 100% inhibition)” value in [1] is 0.5 µg/mL; in the assay on Pseudomonas corrugata it was 0.5 µg/mL; in [2] (setting [6]), >10/>10 μg/ml; in assay [3], >10/>10 μg/ml; in the assay with Xanthomonas vesicatoria, 2.5 µg/mL; in assay [4], 0.5/0.5 μg/ml.

With RKKRLRVVRRLV-NH2 [SP1-5], the “MIC (>90% inhibition)” value in [1] is >10/>10 μg/ml; against Pseudomonas corrugata, 5.0 µg/mL; in [2] (setting [5]) it was 1.0 µg/mL; in assay [3], >10/>10 μg/ml; in the assay on Xanthomonas vesicatoria it was >10/>10 μg/ml; in assay [4], >10/>10 μg/ml. The “LC (lethal concentration, 100% inhibition)” value was >10/>10 μg/ml in assay [1]; 2.5 µg/mL in assay [2] (setting [6]); >10/>10 μg/ml in assay [3]; >10/>10 μg/ml with Xanthomonas vesicatoria; >10/>10 μg/ml in [4].

With RKKKFKFFKRFF-NH2 [SP1-13], the “MIC (>90% inhibition)” value in assay [1] is 0.1 µg/mL; with Pseudomonas corrugata, < 0.1 µg/mL; in [2], 1.0 µg/mL; in [3], >10/>10 μg/ml; against Xanthomonas vesicatoria, 0.5 µg/mL; in [4] it was 0.25 µg/mL. Also, the “LC (lethal concentration, 100% inhibition)” value in assay [1] is 0.5 µg/mL; with Pseudomonas corrugata, 0.25 µg/mL; in assay [2] (setting [6]) it was 5.0 µg/mL; in [3] it was >10/>10 μg/ml; with Xanthomonas vesicatoria, 2.5 µg/mL; in assay [4], 1.0 µg/mL.

Take KKKKKKIIKKII-NH2 [SP1-22]: the “MIC (>90% inhibition)” value in assay [1] is 2.5 µg/mL; against Pseudomonas corrugata, >10/>10 μg/ml; in assay [2] (setting [5]), 1.0 µg/mL; in [3] it was >10/>10 μg/ml; against Xanthomonas vesicatoria, >10/>10 μg/ml; in [4], >10/>10 μg/ml. For the same substance, the “LC (lethal concentration, 100% inhibition)” value in [1] is 10 µg/mL; in the assay on Pseudomonas corrugata, >10/>10 μg/ml; in assay [2] (setting [6]) it was 5.0 µg/mL; in [3], >10/>10 μg/ml; in the assay with Xanthomonas vesicatoria it was >10/>10 μg/ml; in assay [4] it was >10/>10 μg/ml.

As to RKKKKKIIKKLI-NH2 [SP1-21], the “MIC (>90% inhibition)” value in assay [1] was 0.5 µg/mL; with Pseudomonas corrugata it was 2.5 µg/mL; in assay [2] (setting [5]) it was 2.5 µg/mL; in [3] it was >10/>10 μg/ml; in the assay with Xanthomonas vesicatoria it was >10/>10 μg/ml; in assay [4] it was >10/>10 μg/ml. Besides, the “LC (lethal concentration, 100% inhibition)” value in assay [1] was 2.5 µg/mL; in the assay with Pseudomonas corrugata it was 5.0 µg/mL; in [2] (setting [6]), 5.0 µg/mL; in assay [3], >10/>10 μg/ml; in the assay on Xanthomonas vesicatoria, >10/>10 μg/ml; in assay [4], >10/>10 μg/ml.

On to RKKRKKLIKRLI-NH2 [Sp1-19], for which the “MIC (>90% inhibition)” value in assay [1] was < 0.1 µg/mL; with Pseudomonas corrugata it was 0.5 µg/mL; in [2] (setting [5]), >10/>10 μg/ml; in [3], >10/>10 μg/ml; against Xanthomonas vesicatoria, 5.0 µg/mL; in assay [4] it was 5.0/5.0 μg/ml. In addition, the “LC (lethal concentration, 100% inhibition)” value in assay [1] is 5.0 µg/mL; in the assay on Pseudomonas corrugata, 1.0 µg/mL; in [2] (setting [6]), >10/>10 μg/ml; in assay [3], >10/>10 μg/ml; in the assay on Xanthomonas vesicatoria it was > 10 µg/mL; in assay [4] it was 5.0/5.0 μg/ml.

Take RKKRKKLLKRLL-NH2 [SP1-18]: the “MIC (>90% inhibition)” value in assay [1] is 0.1 µg/mL; in the assay with Pseudomonas corrugata, 0.25 µg/mL; in [2] (setting [5]), 1.0 µg/mL; in [3] it was >10/>10 μg/ml; against Xanthomonas vesicatoria, 5.0 µg/mL; in assay [4] it was 5.0/5.0 μg/ml. In addition, the “LC (lethal concentration, 100% inhibition)” value in [1] is 5.0 µg/mL; in the assay with Pseudomonas corrugata, 0.5 µg/mL; in assay [2] (setting [6]) it was 0.5 µg/mL; in assay [3], >10/>10 μg/ml; in the assay on Xanthomonas vesicatoria, 10 µg/mL; in assay [4], 5.0/5.0 μg/ml.

On to RKKKAKIIKKII-NH2 [SP1-10], for which the “MIC (>90% inhibition)” value in assay [1] is 1.0 µg/mL; with Pseudomonas corrugata, 10/10 μg/ml; in [2] (setting [5]), >10/>10 μg/ml; in [3], >10/>10 μg/ml; against Xanthomonas vesicatoria, >10/>10 μg/ml; in assay [4] it was >10/>10 μg/ml. Besides, the “LC (lethal concentration, 100% inhibition)” value is 5.0 µg/mL in assay [1]; 10/10 μg/ml with Pseudomonas corrugata; >10/>10 μg/ml in assay [2] (setting [6]); >10/>10 μg/ml in [3]; >10/>10 μg/ml in the assay on Xanthomonas vesicatoria; >10/>10 μg/ml in [4].

For KRKKLLKRLL-NH2 [SP1-15], the “MIC (>90% inhibition)” value in assay [1] is 0.1 µg/mL; against Pseudomonas corrugata, <0.1/<0.1 μg/ml; in assay [2] (setting [5]) it was 1.0/1.0 μg/ml; in [3], >10/>10 μg/ml; against Xanthomonas vesicatoria it was 5.0/5.0 μg/ml; in [4] it was 5.0/5.0 μg/ml. The “LC (lethal concentration, 100% inhibition)” value in [1] is 1.0 µg/mL; in the assay with Pseudomonas corrugata it was <0.1/<0.1 μg/ml; in assay [2] (setting [6]) it was 1.0/1.0 μg/ml; in assay [3], >10/>10 μg/ml; with Xanthomonas vesicatoria, 5.0/5.0 μg/ml; in [4], 5.0/5.0 μg/ml.
